{"source": "patent US20110160244A1", "about": "“PHENYL[…] MU-OPIOID RECEPTOR” (AUSPEX PHARMACEUTICALS, INC., priority 2008, published 2011)", "origin": "cited, not measured here", "key": {"[1]": {"settings": "after oral administration"}}}
{"smiles": "CCOC(=O)C1(c2ccccc2)CCN(C)CC1", "note": "[Meperidine, Ethyl 1-methyl-4-phenylpiperidine-4-carboxylate]", "values": [{"measurement": "fraction escaping first-pass metabolism", "setting": "[1]", "result": "about 50%"}, {"measurement": "time to peak analgesic effect", "setting": "following oral administration", "result": "≤ 2", "unit": "h"}, {"measurement": "time until analgesic effects are detectable", "setting": "following oral administration", "result": "≤ 15", "unit": "min"}, {"measurement": "time for which the drug is effective", "setting": "statement on dosing interval", "result": 2, "unit": "h"}]}
